According to patent US5639873A, “Oligothionucleotides” (Centre National de la Recherche Scientifique (CNRS), priority 1992, dated 1997):
“Also recorded” adds a separate entry of the source.

Columns and labels:
[1] = test system: 5'-exonuclease calf spleen phosphodiesterase; experiment: Enzymatic degradation of hexamers by 5'-exonuclease calf spleen phosphodiesterase; format: in vitro ADME
Text: (§1) Study of the substrate-type activities of hexamers 4'-SrU6, 4'-SrU6 -3'n-prOH compared with the substrate characteristics of the hexamers βrU6 and αrU6 in relation to various purified nucleases.
Calf spleen phosphodiesterase (CSP) is a 5'-exonuclease which degrades the oligonucleotides from their 5' end and liberates nucleotides 3'-phosphates.
(§2) These four enzymes were obtained from Boehringer Mannheim.
(§3) Generally, one optical density unit at 260 nm of each hexamer is brought into contact with a certain concentration of the enzyme considered and is then diluted in a sufficient quantity for 1000 μl of enzymatic digestion buffer.
(§4) Various digestion buffers were used depending on the nature of the enzyme (Table 9).
(§5) The stock sample is divided into 10 fractions of 100 μl before being frozen at -18° C.
(§6) One aliquot fraction of 100 μl is collected and incubated in a dry oven thermostated at 37° C. for a time t and is then analyzed by analytical HPLC.
(§7) The study of the surface area of the signal corresponding to the hexamer makes it possible to measure a kinetics of degradation whose half-life period is calculated (Table 10).

[2] = test system: 3'-exonuclease snake venom phosphodiesterase; format: in vitro ADME
Text: as §1
Snake venom phosphodiesterase (VSP) is a 3'-exonuclease-3' which liberates nucleotides 5'-phosphate after degrading the oligomer by its 3' end.
as §2, §3, §4, §5, §6, §7

Endonuclease S1 = experiment: Enzymatic degradation of hexamers by endonuclease S1; format: in vitro ADME
Text: as §1
Endonuclease S1, specific for the single DNA strand hydrolyzes the phosphodiester bonds in a random manner.
as §2, §3, §4, §5, §6, §7

Ribonuclease A = experiment: Enzymatic degradation of hexamers by ribonuclease A; format: in vitro ADME
Experimental: as §1
Ribobuclease A degrades an oligoribonucleotide after the pyrimidine residues.
as §2, §3, §4, §5, §6, §7

polyrA = experiment: Melting of duplexes with polyrA (UV spectrophotometry, melting temperature); format: binding; details: for Tm: Table 7, duplex with poly rA, 3 μM; for thermal stability with complementary RNA (in words): complementary RNA sequences; for Melting temperature (Tm) / hypochromicity: Table 4, 3 μM of each oligomer; for Melting temperature (Tm): 10 mM sodium cacodylate, pH 7
Text: (§8) UV spectrophotometry makes it possible to study the nucleic acids and to detect the formation of duplex, the melting temperature being one of the characteristics of a duplex. The stacking and pairing of the bases of the nucleic acids are accompanied by a decrease in the UV absorbtion (hypochromicity). […] The point of inflection of the curve, of sygmoidal shape, of the variation of the absorbance as as function of temperature is called melting temperature or Tm and corresponds to the co-existence of separate strands and paired strands in a 50/50 ratio.
(§9) Analysis of the melting curves for the β-4'-thiooligoribonucleotide/β-oligodeoxyribonucleotide and β-4'-thiooligoribonucleotide/β-oligoribonucleotide duplexes will make it possible to define the thermal stability of such duplexes by the measurement of the melting temperature. These hybridization experiments are carried out preserving a 1/1 stoichiometry between the two complementary strands, in the presence of a 1M NaCl, 10 mM sodium cacodylate buffer. A high NaCl concentration indeed favors the pairings by solvating the negative charges around the phosphorus atoms of the two oligonucleotides. We therefore carried out these hybridization experiments in a 0.1M NaCl, 10 mM sodium cacodylate buffer.
(§10) In order to carry out the hybridization experiment, it is necessary to know the concentration of each oligomer in order to preserve the 1:1 stoichiometry between the two complementary strands. According to the BEER-LAMBERT law A=ε1c, the absorbances of the oligomers were measured at 80° C. in order to remove the phenomenon of stacking of the bases creating a disturbance in the hyperchromicity due to the existence of tertiary structures.
(§11) The hybridization experiments were carried out with a UVIKON 810 spectrophotometer (KONTRON), coupled to an IBM-compatible microcomputer. […] The UV cuvettes are made from quartz of 1 cm in length and a continous circulation of nitrogen is used for temperatures of less than 20° C. […] This mixture is heated at 80° C. for 1 hour, and then cooled to -20° C. according to a temperature gradient of 0.5° C. per minute. The absorbance and temperature values are collected every 30 seconds.
(§12) The same experiment is carried out using a sufficient quantity for 1000 μl of 0.1M NaCl, 10 mM sodium cacodylate hybridization buffer adjusted to pH 7 in order to evaluate the thermal stability of the duplex in this buffer which favors the pairings less.
(§13) The hybridization experiments were carried out preserving the 1/1 stoichiometry between the two complementary strands in the presence of a 1M NaCl, 10 mM sodium cacodylate buffer. A high NaCl concentration indeed favors the pairings by solvating the negative charges around the phosphorus atoms of the two oligonucleotides. We carried out these hybridization experiments in another buffer 0.1M NaCl, 10 mM sodium cacodylate.
as §10, with “experiments,” for “experiment,”
as §11

[3] = test system: βdC2 A12 C2 (SEQ ID NO: 4); experiment: Melting of duplexes with βdC2 A12 C2 (UV spectrophotometry, melting temperature); format: binding; details: for Tm: Table 7, duplex with d(C2 A12 C2), 3 μM; for Melting temperature (Tm): 10 mM sodium cacodylate, pH 7
Text: as §8, §9, §10, §11, §12, §13
as §10, with “experiments,” for “experiment,”
as §11

[4] = test system: calf spleen phosphodiesterase; experiment: Enzymatic degradation of the dodecamers by calf spleen phosphodiesterase; format: in vitro ADME; details: for Degradation in 0 min / Degradation in 25 min: Table 8
Text: Study of the enzymatic degradation of the dodecamer β(SrT)dT11 (SEQ ID NO: 3) by calf spleen phosphodiesterase. Calf spleen phosphodiesterase is an exonuclease which degrades the oligomers from their free 5' ends, thus liberating nucleotides 3' phosphate.
This study will allow us to evaluate the resistance to enzymatic degradation induced by the presence in the 5' position of a 4'-thionucleotide unit in the oligomer β(SrT)dT11 (SEQ ID NO: 3) compared to the enzymatic degradation of the oxygenated natural homolog βdT12 (SEQ ID NO: 3). The comparative stability of the two dodecamers βdT12 (SEQ ID NO: 3) and β(SrT)dT11 (SEQ ID NO: 3) towards hydrolysis by calf spleen phosphodiesterase is presented in Table 8.
The variation over time of the enzymatic degradation of the two dodecamers was monitored by HPLC. We were able to plot the curve for enzymatic digestion of β(SrT)dT11 (SEQ ID NO: 3) as a function of time: A=A0 e^-kt (FIG. 2, A) where:
A0 is the initial surface area of the 12-mer
A is the surface area of the 12-met at the instant t
k is the first order rate constant for the degradation
An oligonucleotide solution (20 μl, 3 absorbance units at 260 nm) is diluted in 0.125M ammmonium acetate buffer (pH 7.0), 2.5 mM EDTA and 0.065% Tween 80 (80 μL). A commercial solution of calf spleen phosphodisesterase (2 μl, final concentration 0.008 unit/ml) is added and the mixture is incubated at 37° C. At determined times, aliquot fractions are collected (5 μl), heated at 100° C. for one minute and analyzed by HPLC.
The analyses were carried out on an PVDI (Polyvinylimidazole SFCC-Shandon) column protected by a precolumn and a prefilter. The elution is carried out based on a linear gradient over 20 minutes from 0.1M to 0.4M KCl in 20 mM KH2 PO4 at pH 6 containing 20% acetonitrile. The flow rate was fixed at 1 ml/min and the UV detection at 260 nm.

βSrU12 (SEQ ID NO: 5) = experiment: Self-hybridization of the oligomer βSrU12; format: binding; details: 1M and 0.1M NaCl
Experimental: For that, an experiment for self-hybridization of the dodecamer βSrU12 (SEQ ID NO: 5) was carried out at two NaCl concentrations (1M and 0.1M). […] No point of inflection can be visualized on such a straight line.
The hybridization experiments were carried out with a UVIKON 810 spectrophotometer (KONTRON), coupled to an IBM-compatible microcomputer. The temperature is controlled by a HUBER PD 415 temperature programmer connected to a thermostated bath (HUMER […]). The UV cuvettes are made from quartz of 1 cm in length and a continous circulation of nitrogen is used for temperatures of less than 20° C. Before the experiment, 3 μM (Examples 1 to V) or 10 μM (Examples VI and VII) of complementary oligomers are brought into contact in a sufficient quantity for 1000 μl of 1M NaCl and 10 mM sodium cacodylate buffer, adjusted to pH 7 (Examples I to VII). This mixture is heated at 80° C. for 1 hour, and then cooled to -20° C. according to a temperature gradient of 0.5° C. per minute. The absorbance and temperature values are collected every 30 seconds.
as §12
Concentration of βrU12 (SEQ ID NO: 5)=0.351 mM […]

[5] = Table 5, 0.1M NaCl, 3 μM of each oligomer
[6] = Table 5, 1M NaCl, 3 μM of each oligomer
[7] = Table 6, 1M NaCl, 10 μM of each oligomer

With 4'-Sr-(U-U-U-U-U-U) [βSrU6] the “enzymatic resistance compared with βrU6 (in words)” value ([1]; CSP) was “high enzymatic resistance”, the Half-life period ([1]; Table 10, CSP 13 × 10^-3 units/ml, pH 7, 37° C.) was 2.708 days and the Half-life period ([2]; Table 10, VSP 6 × 10^-4 units/ml, pH 9.4, 37° C.) was 76 min. The “enzymatic resistance compared with βrU6 (in words)” value ([2]; VSP) was “high enzymatic resistance”, the “enzymatic resistance compared with βrU6 (in words)” value (Endonuclease S1; S1) was “high enzymatic resistance” and the Half-life period (Endonuclease S1; Table 10, S1 20 units/ml, pH 4.7, 37° C.) was 930 min. For the same substance, the “enzymatic resistance compared with βrU6 (in words)” value (Ribonuclease A; RNase-A) was “high enzymatic resistance” and the Half-life period (Ribonuclease A; Table 10, RNAse A 2 × 10^-2 units/ml, pH 7.4, 37° C.) was 670 min.
For “4'-SrU3 -dT6 -4'-SrU3 /P3 PS5 P3 (UUUTTTTTTUUU; 4'-thioribouridine units; phosphorothioate bonds) [compound 5, mixed dodecamer containing both phosphodiester and phosphorothioate bonds]”, the Tm (polyrA; 0.1 M NaCl) was 24 °C, the Tm (polyrA; 1 M NaCl) was 36 °C and the “thermal stability with complementary RNA (in words)” value (shortened to “thermal stability”) (polyrA) was “good thermal stability”. The “decrease in the Tm value per phosphorothioate linkage” value (polyrA; with poly rA and d(C2 A12 C2), versus phosphodiester oligomer 4) was “about 2 °C”, the Tm ([3]; 0.1 M NaCl) was 3 °C and the Tm ([3]; 1 M NaCl) was 19 °C.
In the case of “4'-SrU3 -dT6 -4'-SrU3 /P11 (UUUTTTTTTUUU; 4'-thioribouridine units) [compound 4, mixed dodecamer with phosphodiester bonds]”, the Tm (polyrA; 0.1 M NaCl) is reported as 32 °C, the Tm (polyrA; 1 M NaCl) is reported as 45 °C and the “thermal stability” value (polyrA) is reported as “good thermal stability”. For the same substance, the “Tm values compared with those of βrSU12 (in words)” value (polyrA; with poly rA) was “equivalent”, the Tm ([3]; 0.1 M NaCl) was 10 °C and the Tm ([3]; 1 M NaCl) was 31 °C. For the same substance, the “Tm values compared with those of βrSU12 (in words)” value ([3]; with d(C2 A12 C2)) was “equivalent”.
With “β(SrT)dT11: dodecamer with a 4'-thionucleotide unit in the 5' position (TTTTTTTTTTTT; 5' 4'-thionucleotide unit)” the “first order rate constant for the degradation (k)” value ([4]; FIG. 2, 37° C., 0.008 unit/ml) was 0.016 min⁻¹, the “half-life period (t1/2)” value ([4]; FIG. 2, 37° C., 0.008 unit/ml) was 43 min and the “Degradation in 0 min” value ([4]; 37° C., 0.008 unit/ml) was 0%. The “Degradation in 25 min” value ([4]; 37° C., 0.008 unit/ml) was 23% and the “half-life period compared with that of βSrU12 (in words)” value ([4]; degradation by the 5' end) was “substantially greater”.
“βSrU12: homododecamer 4'-thio-β-D-ribonucleotide (βrSU12)” was tested, and the “Melting temperature (Tm)” value (polyrA; 0.1M NaCl) was 33 °C, the hypochromicity (polyrA; 0.1M NaCl) was 25% and the “Melting temperature (Tm)” value (polyrA; 1M NaCl) was 46 °C. The hypochromicity (polyrA; 1M NaCl) was 25%, the “thermal stability” value (polyrA) was “good thermal stability” and the “Melting temperature (Tm)” value [3, 5] was 5 °C. The hypochromicity [3, 5] was 5.6%, the “Melting temperature (Tm)” value [3, 6] was 27 °C and the hypochromicity [3, 6] was 9.3%. The “self-hybridization (in words)” value (βSrU12 (SEQ ID NO: 5)) was “does not self-pair; also recorded: no self-hybridization”.
With βdT5 (SrT)dT6: dodecamer βdT5 (SrT) dT6 the “difference in Tm (modified duplex lower than natural duplex)” value ([3]; 1M NaCl, 10 μM, versus βdT12/βdC2 A12 C2) was 5 °C, the “Melting temperature (Tm)” value [3, 7] was 40 °C and the hypochromicity [3, 7] was 18%.
For “βdT12: oxygenated natural homolog βdT12 [reference compound]”, the “Melting temperature (Tm)” value [3, 7] was 45 °C, the hypochromicity [3, 7] was 20.5% and the “half-life period (t1/2)” value ([4]; FIG. 2, 37° C., 0.008 unit/ml) was 1 min. For the same substance, the “Degradation in 0 min” value ([4]; 37° C., 0.008 unit/ml) was 0% and the “Degradation in 25 min” value ([4]; 37° C., 0.008 unit/ml) was 93%.
